Results: ChEMBL document CHEMBL5385897, “Computer-Aided drug design of new 2-amino-thiophene derivatives as anti-leishmanial agents” (Eur J Med Chem, 2023)

What was measured:
[1] = Selectivity index, ratio of CC50 for cytotoxicity against mouse J774.A1 cells to IC50 for antileishmanial activity against Leishmania amazonensis promastigote assessed as inhibition of parasite growth; assay type: toxicity, cell-based; details: read-out: Ratio CC50/IC50
Leishmania amazonensis [2] = assay: Antileishmanial activity against Leishmania amazonensis promastigote assessed as inhibition of parasite growth incubated for 72 hrs by MTT colorimetric assay; assay type: functional, organism-based
[3] = Selectivity index, ratio of CC50 for cytotoxicity against mouse J774.A1 cells to IC50 for antileishmanial activity against Leishmania amazonensis axenic amastigote assessed as inhibition of parasite growth; assay type: toxicity, cell-based; details: read-out: Ratio CC50/IC50
[4] = Cytotoxicity against mouse J774.A1 cells incubated for 72 hrs by MTT colorimetric assay; assay type: toxicity, cell-based
Leishmania amazonensis [5] = assay: Antileishmanial activity against Leishmania amazonensis axenic amastigote assessed as inhibition of parasite growth incubated for 72 hrs by MTT colorimetric assay; assay type: functional, organism-based

| SMILES | selectivity ratio [1] | IC50 (Leishmania amazonensis [2]) [µM] | selectivity ratio [3] | CC50 at 72 h [4] [µM] | IC50 (Leishmania amazonensis [5]) [µM] |
| --- | --- | --- | --- | --- | --- |
| N#Cc1c(N)sc2c1CCCCCC2 | 36.6 | 1.2 | 4.47 | 43.9 | 9.8 |
| N#Cc1c(N)sc2c1CCCCC2 | 31.1 |  | 35.7 | 99.5 | 2.79 |
| N#Cc1c(N)sc2c1CCCC2 |  |  |  |  | > 10 |
| COc1ccc2[nH]cc(/C=N/c3sc4c(c3C#N)CCCCCC4)c2c1 |  | 900 |  |  | 2160 |
| N#Cc1c(/N=C/c2c[nH]c3ccc(Br)cc23)sc2c1CCC2 |  | > 10 |  | > 100 | > 10 |
| N#Cc1ccsc1/N=C/c1c[nH]c2ccc(Br)cc12 | 8.73 | 9.7 | 119 | 84.7 | 0.71 |
| N#Cc1c(/N=C/c2c[nH]c3ccc(Br)cc23)sc2c1CCNC2 |  | > 10 |  | 11.2 | > 10 |
| N#Cc1c(/N=C/c2c[nH]c3ccc(Br)cc23)sc2c1CCCCCCCCCC2 |  | > 10 |  | > 100 | > 10 |
| N#Cc1c(/N=C/c2c[nH]c3ccc(Br)cc23)sc2c1CCCCCC2 | > 21.1 | 4.75 | > 26.3 | > 100 | 3.8 |
| CC1CCc2c(sc(/N=C/c3c[nH]c4ccc(Br)cc34)c2C#N)C1 (stereo unspecified) | > 10.1 | 9.9 | > 11.5 | > 100 | 8.72 |
